Assays:
M. incognita J2 larvae = experiment: Quantitative chemotaxis population assay (worm attraction assay); format: in vivo, Meloidogyne incognita; settings: 6-cm Petri dish, larvae counted after 4 hours
Method: FIG. 6A provides a graph of the number of nematodes touching the root tips of Arabidopsis wildtype and acx1acx5 treated with 50 nM ascr #18 or ascr #9 for 48 hours before transfer into 12-well plates containing Pluronic® F-127 gel with ˜200 freshly hatched M. incognita J2 larvae. Larvae touching the terminal part of roots were counted at 6 hours after seedling transfer. Data are average±s.d. (n=12). FIG. 6B provides a schematic of a Petri dish as shown in the plate layout. For FIG. 6C, the indicated concentrations of ascr #18, ascr #9, or ascr #18/ascr #9 mixtures were placed on one side with mock solutions on the other side of the 6-cm Petri dish. Subsequently, approximately 100 freshly hatched M. incognita J2 larvae were placed in the center of the plate. Larvae in the indicated scoring areas were counted after 4 hours. Data are averages±s.d. (n=12), **P≤0.003; two-tailed t-test. FIG. 6D provides the attraction index for different concentrations of ascr #18, ascr #9, or ascr #18/ascr #9 mixtures measured using the layout shown in FIG. 6C. Data are averages±SEM (n=12), **P≤0.002; two-tailed t-test.
Ascarosides were dissolved in ethanol to prepare millimolar stock solutions. […]
Chemotaxis plates were prepared by pouring 8 mL of 2% bacto-agar (BD Biosciences) into 6-cm Petri dishes. […] Worms that remained in the center 0.5-cm-wide strip were not counted. […]

Arabidopsis leaves = experiment: LC-MS time course of Arabidopsis leaves infiltrated with ascr #18; format: in vivo, Arabidopsis thaliana; settings: Arabidopsis leaves infiltrated with 1 μM ascr #18
From the text: FIG. 2A provides LC-MS analysis of tomato roots treated with ascr #18 or ^13C2-labeled ascr #18. Plants treated with ^13C2-labeled ascr #18 show peaks at 333.21932 and 249.12542, representing [M-H]^− of ^13C2-ascr #18 and ^13C2-ascr #9, but not at 331.21261 and 247.11871, which correspond to [M-H]^− of ascr #18 and ascr #9, and vice versa. Structures of ascr #18 and ascr #9 indicating the positions of the ^13C2-label are shown above ion chromatograms. Peaks marked with an asterisk represent unrelated peaks. FIGS. 2B and 2C provide graphs showing the relative abundances of ascr #18 and ascr #9, respectively, as measured by LC-MS. Four-week old Arabidopsis leaves were infiltrated with 1 μM ascr #18, and leaf tissue were harvested for LC-MS analyses over a period of 96 hours post infiltration of ascr #18. Data are averages±SEM (n=3). FIG. 2D provides LC-MS analyses of tomato leaves infiltrated with 1 μM ascr #18. Tissues were collected over a 12 hour period. Abundances of ascr #18 and ascr #9 are shown as the peak area, as measured by LC-MS. […] To test whether microbes are required for the observed metabolic transformations, leaves of 4-week old Arabidopsis plants were directly infiltrated with ascr #18 and leaf tissue was subsequently harvested for analysis by LC-MS as above. […] About 50% of ascr #18 was metabolized during the first 12 hours, during which time concomitant accumulation of ascr #9 was observed. Formation of ascr #9 was also observed in leaves of 4-week old tomato plants infiltrated with ascr #18 (FIG. 2D).

tomato leaves = experiment: LC-MS analysis of tomato leaves infiltrated with ascr #18; format: in vivo, Solanum lycopersicum; settings: 4-week old tomato plants infiltrated with 1 μM ascr #18
From the text: FIG. 2A provides LC-MS analysis of tomato roots treated with ascr #18 or ^13C2-labeled ascr #18. Plants treated with ^13C2-labeled ascr #18 show peaks at 333.21932 and 249.12542, representing [M-H]^− of ^13C2-ascr #18 and ^13C2-ascr #9, but not at 331.21261 and 247.11871, which correspond to [M-H]^− of ascr #18 and ascr #9, and vice versa. Structures of ascr #18 and ascr #9 indicating the positions of the ^13C2-label are shown above ion chromatograms. Peaks marked with an asterisk represent unrelated peaks. FIGS. 2B and 2C provide graphs showing the relative abundances of ascr #18 and ascr #9, respectively, as measured by LC-MS. Four-week old Arabidopsis leaves were infiltrated with 1 μM ascr #18, and leaf tissue were harvested for LC-MS analyses over a period of 96 hours post infiltration of ascr #18. Data are averages±SEM (n=3). FIG. 2D provides LC-MS analyses of tomato leaves infiltrated with 1 μM ascr #18. Tissues were collected over a 12 hour period. Abundances of ascr #18 and ascr #9 are shown as the peak area, as measured by LC-MS. […] To test whether microbes are required for the observed metabolic transformations, leaves of 4-week old Arabidopsis plants were directly infiltrated with ascr #18 and leaf tissue was subsequently harvested for analysis by LC-MS as above. […]

[1] = system: MAPK, jasmonic acid and salicylic acid signaling pathways; settings: Manosalva, et al. (2015); cited from earlier work

Compound | chemotaxis behavior of M. incognita J2 larvae (attraction index) (M. incognita J2 larvae) | time of peak ascr #9 concentration post-infiltration (Arabidopsis leaves) [h] | ascr #9 concentration at 96 hours (Arabidopsis leaves; 96 hours) | formation of ascr #9 in leaves (tomato leaves) | ascr #18 metabolized (Arabidopsis leaves; first 12 hours) | activation of defense signaling pathways in monocots and dicots [1]
C[C@H](CCC(=O)O)O[C@@H]1O[C@@H](C)[C@H](O)C[C@H]1O [ascr #9] | no significant effect | ≤ 12 | very low levels | observed |  | 
CC1O[C@@H](O[C@@H](C)CCCCCCCCC(=O)O)C(O)C[C@H]1O (stereo in doubt) [ascr #18, (10R)-(3′R,5′R-dihydroxy-6′S-methyl-(2H)-tetrahydropyran-2-yloxy)-undecanoic acid] | no significant effect |  |  |  | About 50% | activation of conserved defense signaling pathways

Source: patent US20260000079A1, “COMPOSITIONS AND METHODS FOR MODULATING IMMUNITY IN PLANTS” (BOYCE THOMPSON INSTITUTE FOR PLANT RESEARCH, INC., priority 2019, published 2026)
